Patent US12371454B2, “Cyclic peptide compound having Kras inhibitory action” (priority 2019, dated 2025)
Starred links: 1 amine or outer side, 2 acyl side, 3 side chain; linkers in the order of their positions; H or OH if unused. Positions of bridges follow the written chain, without caps; N, C: chain ends. Non-standard residues stand in square brackets, D forms with d. Residues, ends and D or L forms follow the SMILES beside them. *: point of attachment. hPhe(3,5-F2-4-CF3) = N[C@@H](CCc1cc(F)c(C(F)(F)F)c(F)c1)C(=O)O; hPhe(3-Cl-4-CF3) = N[C@@H](CCc1ccc(C(F)(F)F)c(Cl)c1)C(=O)O; hPhe(4-CF3) = N[C@@H](CCc1ccc(C(F)(F)F)cc1)C(=O)O; NMePhe(4-Cl) = CN[C@@H](Cc1ccc(Cl)cc1)C(=O)O; X4 = O=C([C@H](Cc1cc(F)cc(Cl)c1)N[*:1])[*:2]; NMePhe(4-Me) = CN[C@@H](Cc1ccc(C)cc1)C(=O)O; NMePhe(3-F) = CN[C@@H](Cc1cccc(F)c1)C(=O)O; NMePhe(4-F) = CN[C@@H](Cc1ccc(F)cc1)C(=O)O; NMedβ3hAla = C[C@H](CC(=O)[*:2])N(C)[*:1]; NMeGly(cPent) = CN[C@H](C(=O)O)C1CCCC1; Pro(4,4-F2) = O=C(O)[C@@H]1CC(F)(F)CN1; NMeCha = CN[C@@H](CC1CCCCC1)C(=O)O; NMeGly(cPr) = CN[C@H](C(=O)O)C1CC1; Nva(3-Et) = CCC(CC)[C@H](N)C(=O)O; NMeF = CN[C@@H](Cc1ccccc1)C(=O)O; NMeI = CC[C@H](C)[C@H](NC)C(=O)O; NMeD = CN[C@@H](CC(=O)O)C(=O)O; NMeL = CN[C@@H](CC(C)C)C(=O)O; NEtAla = CCN[C@@H](C)C(=O)O; NMeV = CN[C@H](C(=O)O)C(C)C; d(β3hA) = C[C@@H](N)CC(=O)O; NMeA = CN[C@@H](C)C(=O)O; NMeAib = CNC(C)(C)C(=O)O; Nle = CCCC[C@H](N)C(=O)O; Piperidide = C1CCN(*)CC1; Pyrrolidide = C1CCN(*)C1; dNMeA = CN[C@H](C)C(=O)O; Ac5c = NC1(C(=O)O)CCCC1; Aze = O=C(O)[C@@H]1CCN1; NcPrGly = O=C(O)CNC1CC1; Sar = CNCC(=O)O

Biological target: T1, Kras and SOS1 (biotin-tagged human Kras loaded with GDP, His-tagged human SOS1) (Homo sapiens, UniProt P01116, G12D)
T1 construct: made in house; host or cells: E. coli (stated for Kras only)
Test: Protein-protein interaction inhibition between Kras and SOS1 (KrasGl2D-SOS PPI) using AlphaScreen
Format: binding
Conditions: AlphaScreen; biotin-tagged human Kras loaded with GDP, His-tagged human SOS1; read-out: KRAS G12D-SOS PPI IC50
In short: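 Energy transfer from nickel-chelate donor beads bound to His-SOS1 to streptavidin acceptor beads bound to biotin-Kras, expressed in E. coli and loaded with GDP after purification, was monitored. Donors were excited at 680 nm; singlet oxygen reaching acceptors gave emission read at 520-620 nm.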

T1 sequence (P01116 1-188 isoform P01116-2 G12D): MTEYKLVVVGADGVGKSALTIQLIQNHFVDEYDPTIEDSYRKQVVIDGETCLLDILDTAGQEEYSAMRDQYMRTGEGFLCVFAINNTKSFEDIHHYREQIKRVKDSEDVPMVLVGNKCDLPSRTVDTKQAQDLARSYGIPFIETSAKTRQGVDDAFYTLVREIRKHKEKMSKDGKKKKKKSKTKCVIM

Going from `CC[C@H](C)[C@@H]1NC(=O)[C@H](CC(C)C)N(C)C(=O)C[C@@H](C(=O)N(C)C)N(C)C(=O)[C@H](C2CCCC2)N(C)C(=O)C2(CCCC2)NC(=O)[C@@H](C)NC(=O)[C@H](CCc2ccc(C(F)(F)F)c(Cl)c2)NC(=O)CN(C)C(=O)[C@H](CC2CCCCC2)N(C)C(=O)[C@@H]2CCN2C(=O)[C@H](C)N(C)C1=O` [Compound 191] ([NMeL]I[NMeA][Aze][NMeCha][Sar][hPhe(3-Cl-4-CF3)][dA][Ac5c][NMeGly(cPent)][NMeD]-NMe2; lactam N-11) to `CC[C@H](C)[C@@H]1NC(=O)[C@H](CC(C)C)N(C)C(=O)C[C@@H](C(=O)N2CCCCC2)N(C)C(=O)[C@H](C2CC2)N(C)C(=O)C2(CCCC2)NC(=O)[C@@H]2CCCN2C(=O)[C@H](CCc2ccc(C(F)(F)F)c(Cl)c2)NC(=O)CN(C)C(=O)[C@H](CC2CCCCC2)N(C)C(=O)CN(C)C(=O)CN(C)C1=O` [Compound 197] ([NMeL]I[Sar][Sar][NMeCha][Sar][hPhe(3-Cl-4-CF3)]P[Ac5c][NMeGly(cPr)][NMeD]-Piperidide; lactam N-11), the IC50 rises from 3.4 nM to 6.8 nM (2-fold).

First: CCC(CC)[C@@H]1NC(=O)[C@H](CC(C)C)N(C)C(=O)C[C@@H](C(=O)N(C)C)N(C)C(=O)[C@H]([C@@H](C)CC)N(C)C(=O)CNC(=O)[C@@H]2CCCN2C(=O)[C@H](CCc2ccc(C(F)(F)F)c(Cl)c2)NC(=O)CN(C)C(=O)[C@H](Cc2ccc(C)cc2)N(C)C(=O)[C@@H]2CCN2C(=O)[C@H](C)N(C)C1=O [Compound 193] ([NMeL][Nva(3-Et)][NMeA][Aze][NMePhe(4-Me)][Sar][hPhe(3-Cl-4-CF3)]PG[NMeI][NMeD]-NMe2; lactam N-11)
Second: CC[C@H](C)[C@@H]1NC(=O)[C@H](C)N(C)C(=O)C[C@@H](C(=O)N2CCCC2)NC(=O)[C@H](CC(C)C)N(C)C(=O)[C@H](Cc2ccccc2)N(C)C(=O)[C@H](CC(C)C)N(C)C(=O)[C@H](CCc2ccc(C(F)(F)F)cc2)NC(=O)CN(C)C(=O)[C@H](Cc2ccc(Cl)cc2)N(C)C(=O)CN(C)C(=O)CN(C)C1=O [Compound 199] ([NMeA]I[Sar][Sar][NMePhe(4-Cl)][Sar][hPhe(4-CF3)][NMeL][NMeF][NMeL]D-Pyrrolidide; lactam N-11)
The IC50 of the first is 12-fold higher: 420 nM for the first, 36 nM for the second. The second is the more potent here.

First: CC[C@H](C)[C@@H]1NC(=O)[C@H](C)N(C)C(=O)C[C@@H](C)NC(=O)[C@H](C2CCCC2)N(C)C(=O)C2(CCCC2)NC(=O)[C@@H]2CCCN2C(=O)[C@H](CCc2ccc(C(F)(F)F)c(Cl)c2)NC(=O)CN(C)C(=O)[C@H](Cc2cccc(F)c2)N(C)C(=O)[C@@H]2CCCN2C(=O)CN(C)C1=O [Compound 194] (cyclo([Ac5c][NMeGly(cPent)][d(β3hA)][NMeA]I[Sar]P[NMePhe(3-F)][Sar][hPhe(3-Cl-4-CF3)]P))
Second: CC[C@H](C)[C@@H]1NC(=O)[C@H](C)N(C)C(=O)C[C@@H](C)NC(=O)[C@H](C2CCCC2)N(C)C(=O)C2(CCCC2)NC(=O)[C@@H]2CCCN2C(=O)[C@H](CCc2ccc(C(F)(F)F)c(Cl)c2)NC(=O)[C@@H](C)N(C)C(=O)[C@H](Cc2ccc(F)cc2)N(C)C(=O)CN(C)C(=O)CN(C)C1=O [Compound 206] (cyclo([Ac5c][NMeGly(cPent)][d(β3hA)][NMeA]I[Sar][Sar][NMePhe(4-F)][dNMeA][hPhe(3-Cl-4-CF3)]P))
The IC50 of the first is 4.1-fold lower: 27 nM for the first, 110 nM for the second.

Going from `CC[C@H](C)[C@@H]1NC(=O)[C@H](C)N(CC)C(=O)C[C@@H](C)NC(=O)[C@H](C(C)C)N(C)C(=O)C2(CCCC2)NC(=O)[C@@H]2CCCN2C(=O)[C@H](CCc2ccc(C(F)(F)F)c(Cl)c2)NC(=O)CN(C)C(=O)[C@H](CC2CCCCC2)N(C)C(=O)CN(C)C(=O)CN(C)C1=O` [Compound 196] (cyclo([Ac5c][NMeV][d(β3hA)][NEtAla]I[Sar][Sar][NMeCha][Sar][hPhe(3-Cl-4-CF3)]P)) to `CC[C@H](C)[C@@H]1NC(=O)[C@H](CC(C)C)N(C)C(=O)C[C@@H](C)NC(=O)[C@H](C(C)C)N(C)C(=O)C2(CCCC2)NC(=O)[C@@H]2CCCN2C(=O)[C@H](CCc2ccc(C(F)(F)F)c(Cl)c2)NC(=O)CN(C2CC2)C(=O)[C@H](CC2CCCCC2)N(C)C(=O)CN(C)C(=O)CN(C)C1=O` [Compound 204] (cyclo([Ac5c][NMeV][d(β3hA)][NMeL]I[Sar][Sar][NMeCha][NcPrGly][hPhe(3-Cl-4-CF3)]P)), the IC50 rises from 13 nM to 180 nM (14-fold). The first is the more potent here.

First: CC[C@H](C)[C@@H]1NC(=O)[C@H](CC(C)C)N(C)C(=O)C[C@@H](C)N(C)C(=O)[C@H](C2CCCC2)N(C)C(=O)C2(CCCC2)NC(=O)[C@@H]2CC(F)(F)CN2C(=O)[C@H](CCc2cc(F)c(C(F)(F)F)c(F)c2)NC(=O)CN(C)C(=O)[C@H](CC2CCCCC2)N(C)C(=O)CN(C)C(=O)CN(C)C1=O [Compound 198] (cyclo([Ac5c][NMeGly(cPent)][NMedβ3hAla][NMeL]I[Sar][Sar][NMeCha][Sar][hPhe(3,5-F2-4-CF3)][Pro(4,4-F2)]))
Second: CCCC[C@@H]1NC(=O)[C@H](Cc2cc(F)cc(Cl)c2)NC(=O)CN(C)C(=O)[C@H](Cc2ccc(Cl)cc2)N(C)C(=O)CN(C)C(=O)CN(C)C(=O)[C@H]([C@@H](C)CC)NC(=O)[C@H](CC(C)C)N(C)C(=O)C[C@@H](C(=O)N2CCCCC2)N(C)C(=O)[C@H](CC(C)C)NC(=O)C(C)(C)N(C)C1=O [Compound 202] ([NMeL]I[Sar][Sar][NMePhe(4-Cl)][Sar][X4][Nle][NMeAib]L[NMeD]-Piperidide; lactam N-11)
The IC50 of the first is 4.6-fold lower: 8.5 nM for the first, 39 nM for the second.
